Measured values published in patent publication US20240226302A1, “BIODEGRADABLE LIPIDS AND FORMULATIONS FOR INTRAMUSCULAR, IN VITRO, AND EX VIVO TRANSFECTION OF MRNA” (Massachusetts Institute of Technology, priority 2022, published 2024).

Columns and labels:
mice = test: Intramuscular injection of LNPs loaded with firefly luciferase mRNA, 0.25 mg/kg, luciferase expression; type: in vivo; settings: for potency compared to MD-1 (luciferase expression): 0.25 mg/kg Fluc mRNA
Description: (§1) LNPs for in vitro studies and intramuscular injections were prepared by hand mixing. The lipid components were dissolved in ethanol and, separately, mRNA encoding for firefly luciferase (fLuc) was diluted into a solution of 10 mM citrate pH 3.0 at a concentration of […]. The two solutions were mixed in a 3:1 water:ethanol volume ratio by repeatedly pipetting up and down. For intravenous studies, nanoparticles were instead formed by mixing the ethanol and aqueous phases with a microfluidic chip as described previously.
The in vivo potency of the ionizable lipids was screened through intramuscular injection of LNPs loaded with mRNA encoding firefly luciferase protein. These LNPs were formulated with a molar composition of (35:16:46.5:2.5) using one of the synthesized ionizable lipids, DOPE as a helper lipid, cholesterol, and DMPE-PEG. Ionizable lipid AMG104 was chosen due to high in vitro mRNA transfection ability. mRNA-loaded LNPs were intramuscularly administered in mice at a dose of 0.25 mg/kg (5 μg) and expression of luciferase protein was monitored at 6 hours (0.25 day), and day 1, 2, 3, 5 and 7.
Additional lipids were synthesized varying length of the hydrophobic tail with or without one alkene or by varying the location of the internal alkene near or away from the ester linkage. The number of carbons on the amine headgroup was also varied (FIG. 4). […] The luciferase expression was monitored at 6 h, 24 h, and 48 h time points after intramuscular administration of Fluc mRNA dosed at 0.25 mg/kg formulated with various LNPs containing these lipids.

[1] = Intramuscular route screening with FLuc mRNA (0.1 μg), luciferase expression; type: in vivo; settings: FLuc mRNA 0.1 μg (FIG. 12)
Description: In addition, the importance of the OH group was evaluated. The importance of the orientation of the ester and OH was also evaluated (FIG. 10). The additional tails were also used to synthesize AMG1058, AMG1059, and AMG1041OHD. From a screening experiment using 0.1 μg FLuc mRNA dose, it was determined that the ester's specific orientation and the OH groups' location are important for G41 potency and that minor alterations can dramatically decrease potency.
The potency of these lipids was tested in vivo via intramuscular administration. AMG1041OHD was not tested in vivo due to difficulty in formulating these particles. The FLuc mRNA (0.1 μg) intramuscular route screening data is shown in FIG. 12 for the AMG1041 derivative lipids.

HeLa cells = test: In vitro full factorial DOE formulation screening of LNPs, luciferase expression, Bright-Glo assay; type: cell-based
Description: as §1
HeLa cells were plated on a white, flat-bottom 96 well plate (Corning, Corning, NY) at a density of 15k cells/well and allowed to recover for 24 hrs. Each well was then dosed with 150 ng of mRNA, and, after 24 hrs., luciferase expression was determined using a Bright-Glo assay (Promega, Madison, WI). The first generation of ionizable lipids was screened in this manner and the results are shown as performance relative to a positive control MD-1^3 in a heatmap in FIG. 2.
For intravenous experiments, design of experiments (DOE) was used to systematically vary the ratios of each of the LNP components for lipid AMG104. First, an initial screening of each of the components was performed using a definitive screening design. This experimental design allows for identification of the LNP components which have the greatest effect on delivery potency. […]

Jurkat cells = test: mRNA (luciferase) transfection of Jurkat cells by LNPs, Bright-Glo assay; type: cell-based, human; settings: 150 ng mRNA
Description: as §1
Based on high transfection potency in Hela cells, some of the potent lipids were tested for mRNA delivery efficacy in Jurkat cells, an immortalized human T-cell line for potential CAR-T therapeutic applications. Jurkat cells were cultured in a RPMI-1640 medium with L-glutamine supplemented with 10% bovine serum and 1% penicillin-streptomycin. Jurkat cells were plated on a white, flat-bottom 96 well plate (Corning, Corning, NY) at a density of 100k cells/well and co-incubated dosed with 150 ng of mRNA. Luciferase expression in the cells was determined after 24 hours using a Bright-Glo assay (Promega, Madison, WI) and normalized to cell viability (Multi-tox, Promega).

[2] = comparison, FIG. 15B, reference 5 (Hassett et al.); cited from earlier work
[3] = Lipid clearance monitored by LC-MS after intramuscular injection; type: in vivo; settings: BALB/C mice, LC-MS (FIG. 15A)
Description: AMG1041 lipid clearance was monitored by LC-MS after intramuscular injection to BALB/C mice at various time points. AMG1041 was cleared within 24 hours from the injection site in the muscle (FIG. 15A). As a comparison, SM-102 was detectable even after 40 hours (FIG. 15B).^5 https://www.ncbi.nlm.nih.gov/pmc/articles/PMC6383180/).

ovalbumin = test: Vaccination against ovalbumin by intramuscular injection of Ova mRNA, antibody titers and Elispot; type: in vivo
Description: AMG1041 was tested for vaccination against ovalbumin.

Q: For CCCC/C=C\CCCCCCCC(=O)OCC(O)CN1CCCN(CC(O)COC(=O)CCCCCCC/C=C\CCCC)CCN(CC(O)COC(=O)CCCCCCC/C=C\CCCC)CCCN(CC(O)COC(=O)CCCCCCC/C=C\CCCC)CC1 (stereo not shown) [AMG1042], which “potency compared to MD-1 (luciferase expression)” value (mice) is on record?
A: The value was “nearly as potent as”.

Q: With CCCC/C=C\C/C=C\CCC(=O)OCC(O)CN1CCCN(CC(O)COC(=O)CC/C=C\C/C=C\CCCC)CCN(CC(O)COC(=O)CC/C=C\C/C=C\CCCC)CCCN(CC(O)COC(=O)CC/C=C\C/C=C\CCCC)CC1 (stereo not shown) [AMG1053] as the compound, how does the “luciferase expression compared to control sample with MD-1” value [1] read?
A: The value was “nearly as well as the control sample with MD-1”.

Q: With CCCCCC/C=C\CCCCCCCC(=O)OCC(O)CN1CCCN(CC(O)COC(=O)CCCCCCC/C=C\CCCCCC)CCN(CC(O)COC(=O)CCCCCCC/C=C\CCCCCC)CCCN(CC(O)COC(=O)CCCCCCC/C=C\CCCCCC)CC1 (stereo not shown) [AMG1043] as the compound, how does the “potency compared to MD-1 (luciferase expression)” value (mice) read?
A: The value was “nearly as potent as”.

Q: What does the source list for CCCCCCCC/C=C\CCCCCCCC(=O)OCC(O)CN1CCCN(CC(O)COC(=O)CCCCCCC/C=C\CCCCCCCC)CCN(CC(O)COC(=O)CCCCCCC/C=C\CCCCCCCC)CCCN(CC(O)COC(=O)CCCCCCC/C=C\CCCCCCCC)CC1 (stereo not shown) [AMG104]?
A: in vitro performance of formulation 2 relative to the original (control) formulation 1 (HeLa cells; AMG104 LNP formulation 2 (helper 35%, ionizable lipid 30%, cholesterol 32.5%, DMPE-PEG 2.5%, lipid:mRNA 10:1) vs formulation 1 (16/35/46.5)): ~8.2 ×; in vitro transfection (HeLa cells; AMG104 using formulation 2): extremely potent in vitro transfection; luciferase protein expression in mice (mice; 0.25 mg/kg (5 μg) fLuc mRNA, LNP 35:16:46.5:2.5 ionizable lipid:DOPE:cholesterol:DMPE-PEG): high luciferase protein expression; potency compared to MD-1 (luciferase expression) (mice): comparable to that of MD1; transfection in jurkat cells as compared to MD-1 lipid (Jurkat cells; 24 hours (FIG. 3)): increased transfection; mRNA transfection compared to commercially used lipofectamine positive controls (Jurkat cells; 24 hours, normalized to cell viability (FIG. 3)): higher mRNA transfection

Q: With CCCCCCCCCCCOC(=O)CCCCCN(CCO)CCCCCCCC(=O)OC(CCCCCCCC)CCCCCCCC [SM-102] as the compound, how does the “time after which lipid was still detectable” value [2] read?
A: Its value is > 40 h.

Q: With CCCCCC/C=C\CCCCCCCCCC(=O)OCC(O)CN1CCCN(CC(O)COC(=O)CCCCCCCCC/C=C\CCCCCC)CCN(CC(O)COC(=O)CCCCCCCCC/C=C\CCCCCC)CCCN(CC(O)COC(=O)CCCCCCCCC/C=C\CCCCCC)CC1 (stereo not shown) [AMG1044] as the compound, how does the “potency compared to MD-1 (luciferase expression)” value (mice) read?
A: The value was “nearly as potent as”.

Q: With C/C=C\C/C=C\CCCCCC(=O)OCC(O)CN1CCCN(CC(O)COC(=O)CCCCC/C=C\C/C=C\C)CCN(CC(O)COC(=O)CCCCC/C=C\C/C=C\C)CCCN(CC(O)COC(=O)CCCCC/C=C\C/C=C\C)CC1 (stereo not shown) [AMG1056] as the compound, how does the “luciferase expression compared to control sample with MD-1” value [1] read?
A: The value was “performed similarly”.

Q: With CCCCCC/C=C\CCCC(=O)OCC(O)CN1CCCN(CC(O)COC(=O)CCC/C=C\CCCCCC)CCN(CC(O)COC(=O)CCC/C=C\CCCCCC)CCCN(CC(O)COC(=O)CCC/C=C\CCCCCC)CC1 (stereo not shown) [AMG1041] as the compound, how does the “time to clearance from the injection site in the muscle” value [3] read?
A: Its value is ≤ 24 h.

Q: What about the “luciferase expression, times higher” value (mice; 0.25 mg/kg Fluc mRNA (FIG. 5A), comparator not stated, MD-1 named in the same sentence) of the same compound?
A: The value was 2-3 times.

Q: And the “cellular response from Elispot assay as compared to SM-102 and MD-1” value (ovalbumin; after day 28 (FIG. 14))?
A: The value was “strong cellular response”.

Q: And the “antibody titers, potency compared to SM-102” value (ovalbumin; day 14, intramuscular, varying Ova mRNA doses (FIG. 14))?
A: Its value is “higher potency compared to SM-102”.
